# Results as given in patent publication EP0453247A2, “Anti-viral compounds” (THE WELLCOME FOUNDATION LIMITED, priority 1990, dated 1991).
# How the values were obtained:
# VZV = VZV plaque reduction assay; format: cell-based; details: Human alphaherpesvirus 3; plaque reduction in monolayers of MRC5 or Detroit 532 cells; read-out: VZV 1C50
# Experimental: Antiviral testing against VZV was determined by measuring the ability of the compound to reverse the cytophathic effect of VZV infection.
# VZV is assayed in monolayers of either MRC5 cells (human embryonic lung) or Detroit 532 cells (human foreskin fibroblasts) in multiwell trays. Activity of compounds is determined in the plaque reduction assay, in which a cell monolayer is infected with a suspension of VZV. Plaque numbers of each concentration are expressed as percentage of the control and a dose-response curve is drawn. From this curve the 50% inhibitory concentration (IC₅₀) is estimated.
# [1] = Cell growth inhibition assay (MTT uptake); format: cell-based; details: monkey, Vero cells, 50% inhibition of cell viability at 96 hours, read-out: Toxicity CCID50(Vero)
# Experimental: Cell toxicity is assessed in a cell growth inhibition assay. Subconfluent cultures of Vero cells grown on 96-well microtiter dishes are exposed to different dilutions of drug, and cell viability determined daily on replicate cultures using uptake of a tetrazolium dye (MTT). The concentration required for a 50% inhibition of cell vaibility at 96 hours is termed CCID₅₀.
structure (smiles),measurement,setting,value
"C#Cc1cn([C@@H]2O[C@H](CO)[C@@H](O)[C@H]2F)c(=O)[nH]c1=O [2'-Deoxy-5-ethynyl-2'-fluorouridine, 2′-Deoxy-5-ethynyl-2′-fluoro uridine]",IC50,VZV,2.16 µM
same,CC50 at 96 h,[1],156 µM
"CC#Cc1cn([C@@H]2O[C@H](CO)[C@@H](O)[C@H]2F)c(=O)nc1N [2'-Deoxy-2'-fluoro-5-prop-1-ynylcytidine, 2′-Deoxy-2′-fluoro-5-prop-1-ynylcytidine]",IC50,VZV,2.3 µM
same,CC50 at 96 h,[1],> 500 µM
"CC#Cc1cn([C@@H]2O[C@H](CO)[C@@H](O)[C@H]2F)c(=O)[nH]c1=O [2'-Deoxy-2'-fluoro-5-prop-1-ynyluridine, 2′-Deoxy-2′-fluoro-5-prop-1-ynyluridine]",IC50,VZV,2.6 µM
same,CC50 at 96 h,[1],> 500 µM
"C#Cc1cn([C@@H]2O[C@H](CO)[C@@H](O)[C@H]2F)c(=O)nc1N [2'-Deoxy-5-ethynyl-2'-fluorocytidine, 2′-Deoxy-5-ethynyl-2′fluorocytidine]",IC50,VZV,5.3 µM
same,CC50 at 96 h,[1],> 500 µM
